Test results from paper PMC3311015 (Proceedings of the Japan Academy. Series B, Physical and …, 2011).
Read-outs that look alike come from different tables or passages of the source.

Key:
[1] = rat, in vivo, 10 mg/kg; cited from earlier work
[2] = biological target: T1, D-amino acid oxidase (DAAO) (Rattus norvegicus, UniProt O35078); test: DAAO-inhibitory effect of MPC in vivo (change of plasma D-Trp concentration after MPC pretreatment); parameters: species or system Male SD rats; details: MPC 50 mg·kg^−1 i.p. 30 min before D-Trp 100 mg·kg^−1 i.p.
T1 construct: Male SD rats were purchased from Charles River Japan; from tissue; host or cells: whole animal (male SD rats); DAAO activity is attributed to liver and kidney cells
Procedure: (§1) Administration of Ket to rats was carried out as previously reported.[9]) Ketamine hydrochloride (Wako Pure Chemicals Co., Ltd., Osaka, Japan) was dissolved in physiological saline ([…]) and then intraperitoneally (i.p.) administered (30 mg·kg^−1) to 7-week-old rats daily for 5 consecutive days. The control animals received only saline (1 mL·kg^−1·day^−1). The rats were used for experiments 4 weeks after cessation of the ketamine or saline treatment.
(§2) D-Trp was dissolved in PBS (10 mg·mL^−1) and administered i.p. to control or Ket-treated rats (100 mg·kg^−1; n = 3–5) at 30 min after i.p. administration of MPC (50 mg·kg^−1). A heparinized syringe with a 25-gauge needle was used to draw blood (approximately 0.20 mL) from the left jugular vein 0.5, 1, 1.5, 2, 3, 4, 5, and 6 h after administration of D-Trp. The blood was treated in a similar manner as described in previous paper.[17]) Plasma D-Trp concentration was determined by our previously published HPLC method.[17])
(§3) Pharmacokinetic parameters obtained in the present study were determined by a simplex method analysis or moment analysis. Statistical analyses were performed using a one-way analysis of variance (ANOVA), followed by Bonferroni’s multiple comparison test. A p value below 0.05 was judged as a significant difference.

[3] = in vivo; assay type: in vivo, Male SD rats
Procedure: as §1
A solution of MPC (5.0 or 50 mg·kg^−1·3 mL^−1) was prepared in PBS/ethanol/PEG (2.8/0.1/0.1) and was i.p. administered to rats. A heparinized syringe with a 25-gauge needle was used to draw blood (approximately 0.20 mL) from the left jugular vein at 0.083, 0.25, 0.5, 1, 2, and 3 h after administration of MPC (5.0 mg·kg^−1, n = 4), or at 0.083, 0.25, 0.5, 1, and 3 h after administration of MPC (50 mg·kg^−1, n = 5–6). Before administration of either dose of MPC, blood (approximately 0.20 mL) was obtained from each rat and used as the control. The blood was centrifuged at 3,000 g for 10 min at 4℃ to obtain plasma. The plasma was transferred to another tube and stored at −80℃ until it was analyzed.
For determining the plasma concentration of MPC, 2 calibration curves (31.25–250 µM and 200–800 µM) were constructed. Ten microliters of PBS or rat blank plasma was spiked with 10 µL of 31.25–800 µM MPC dissolved in CH3CN and 10 µL of 200 µM I.S. dissolved in CH3CN, and vigorously mixed with 70 µL of CH3CN/MeOH (50/50). In the case of plasma samples from the rats administered MPC, 10 µL of CH3CN was used instead of MPC in CH3CN.
After centrifugation at 2,500 rpm for 5 min, 50 µL of the supernatant was sampled and evaporated in vacuo. The obtained residue was dissolved in 100 µL of the mobile phase, 60 µL (31.25–250 µM) or 20 µL (200–800 µM) of the final solution after filtration with Durapore® (0.2 µm membrane, Millipore K.K., Tokyo, Japan), and was injected into the LC-MS system.
The LC-MS apparatus comprised an Agilent 1200 series HPLC (Agilent Technologies, CA, U.S.A.) and a time of flight (TOF)-MS, JMS-T100 LP AccuTOF LC-Plus, equipped with an electrospray ionization (ESI) source (JEOL Co. Ltd., Tokyo, Japan). The separation column used in this study was TSKgel ODS-80Ts QA (150 mm × 2.0 mm; i.d., 5 µm) (Tosoh Corporation, Tokyo, Japan). For the mobile phase, 0.1% HCO2H in H2O/CH3CN (95/5) was eluted isocratically at 0.16 mL·min^−1. Column temperature was maintained at 40℃. The conditions for ESI-MS detection were as follows: positive ion mode; needle voltage was set at 2,000 V; and the ring lens and orifice 1 and 2 voltages were set at 8, 49, and 4 V, respectively. Nitrogen was used as the nebulizing and desolvating gas, and the pressure was constant at 0.617 MPa. The desolvation chamber and orifice 1 temperatures were 250℃ and 80℃, respectively. The data were obtained using Mass Center software, MS-56010MP (JEOL).
as §3

[4] = system: DAAO; parameters: method as in PMID 20801337; details: D-Trp as substrate for DAAO; cited from earlier work
[5] = in vivo; parameters: species or system Male SD rats; details: D-Trp i.p. 100 mg·kg^−1; for AUC / Cmax / k el / half-life: male, SD, rat, in vivo, ip, 100 mg/kg; for AUC: read-out: AUC of plasma D-Trp; for Cmax: read-out: Cmax of plasma D-Trp; for k el: read-out: Ke of plasma D-Trp (converted); for half-life: read-out: t1/2 of plasma D-Trp
Procedure: as §1
as §2, with “D-Trp was dissolved in PBS (10 mg·mL^−1) and administered i.p. to control or Ket-treated rats (100 mg·kg^−1; n = 3–5) at 30 min after i.p. administration of MPC (50 mg·kg^−1).” left out
as §3

[6] = rat; cited from earlier work
[7] = Ket-treated rat, with pretreatment of MPC (50 mg·kg^−1)
[8] = Ket-treated rat, without pretreatment of MPC
[9] = control rat, with pretreatment of MPC (50 mg·kg^−1)
[10] = control rat, without pretreatment of MPC

T1 sequence (O35078 whole entry): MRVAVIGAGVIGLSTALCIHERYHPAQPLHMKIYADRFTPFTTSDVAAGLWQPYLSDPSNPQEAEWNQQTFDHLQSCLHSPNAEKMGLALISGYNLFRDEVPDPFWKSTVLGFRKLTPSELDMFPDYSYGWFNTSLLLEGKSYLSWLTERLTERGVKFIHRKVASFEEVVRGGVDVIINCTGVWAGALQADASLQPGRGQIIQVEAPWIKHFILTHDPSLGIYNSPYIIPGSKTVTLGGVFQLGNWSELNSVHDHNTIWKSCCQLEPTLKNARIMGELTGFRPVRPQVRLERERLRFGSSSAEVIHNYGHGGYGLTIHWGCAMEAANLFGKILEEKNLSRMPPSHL

For `Cc1cc(C(=O)O)n[nH]1` [MPC, 3-methylpyrazole-5-carboxylic acid], the “clearance (CL) of plasma MPC” value [1] is listed as 0.22 L/h/kg, the “t1/2 of plasma MPC” value [1] is listed as 335 min and the “plasma D-Trp concentrations after MPC pretreatment compared with no pretreatment” value ([2]; Ket-treated rats) is listed as “no significant increase”. For the same compound, the “plasma D-Trp concentrations after MPC pretreatment compared with no pretreatment” value ([2]; control rats) was “significantly higher”, the “differences in PK parameters (Cmax, t1/2, AUC) of plasma MPC between control and Ket-treated rats” value ([3]; MPC i.p. 5.0 mg·kg^−1) was “no remarkable differences” and the “time at which the maximum concentration (Cmax) of plasma MPC was reached” value ([3]; MPC i.p. 5.0 mg·kg^−1, Ket-treated rats) was 0.5 h. The “time at which the maximum concentration (Cmax) of plasma MPC was reached” value ([3]; MPC i.p. 5.0 mg·kg^−1, control rats) was 0.5 h, the “Cmax value of plasma MPC concentration in Ket-treated rats compared with control group” value ([3]; MPC i.p. 50 mg·kg^−1) was “significantly higher” and the “plasma MPC concentrations at 5.0 and 15 min in Ket-treated rats compared with control groups” value ([3]; MPC i.p. 50 mg·kg^−1, p < 0.01 and p < 0.05) was “significantly higher”. For the same compound, the “clearance (CL) of plasma MPC” value ([3]; control rats, i.p. administration, present data) was 18.3 L/h/kg and the half-life ([3]; male, SD, rat, in vivo, ip, control rats, i.p. administration, present data, read-out: t1/2 of plasma MPC) was 50.8 min.

For `N[C@H](Cc1c[nH]c2ccccc12)C(=O)O` [D-Trp, D-tryptophan], the Km [4] is given as 845 µM, the “CL of plasma D-Trp” value [5, 7] is given as 0.404 ± 0.10 L/h/kg and the “Vd of plasma D-Trp” value [5, 7] is given as 0.544 ± 0.09 L/kg. The “CL of plasma D-Trp” value [5, 8] was 0.696 ± 0.11 L/h/kg, the “Vd of plasma D-Trp” value [5, 8] was 0.703 ± 0.07 L/kg and the “CL of plasma D-Trp” value [5, 9] was 0.183 ± 0.01 L/h/kg. The “Vd of plasma D-Trp” value [5, 9] was 0.237 ± 0.02 L/kg, the “CL of plasma D-Trp” value [5, 10] was 0.602 ± 0.02 L/h/kg and the “Vd of plasma D-Trp” value [5, 10] was 0.712 ± 0.04 L/kg. For the same compound, the AUC [5, 7] was 983 ± 128 µM·h, the Cmax [5, 7] was 608 ± 115 µM and the k el [5, 7] was 0.0002 s⁻¹. For the same compound, the half-life [5, 7] was 60.2 ± 6.1 min, the AUC [5, 8] was 719 ± 63.6 µM·h and the Cmax [5, 8] was 587 ± 33.5 µM. The k el [5, 8] was 0.000269 s⁻¹, the half-life [5, 8] was 43.7 ± 2.79 min and the AUC [5, 9] was 2080 ± 138 µM·h. It also gave a Cmax [5, 9] of 1130 ± 75 µM, a k el [5, 9] of 0.000214 s⁻¹ and a half-life [5, 9] of 54 ± 0.1 min. It also gave an AUC [5, 10] of 693 ± 42.9 µM·h, a Cmax [5, 10] of 567 ± 42.6 µM and a k el [5, 10] of 0.000236 s⁻¹. For the same compound, the half-life [5, 10] was 49.1 ± 1.3 min.

In the case of `CNC1(c2ccccc2Cl)CCCCC1=O` (centres unmarked) [ketamine], the half-life in plasma [6] is given as 30 to 36 min.

For `NC1(c2ccccc2Cl)CCCCC1=O` (centres unmarked) [norketamine], the half-life in plasma [6] is given as 36 to 48 min.
